Here are results for two molecules from patent US8334253B2, “Cosmetic and dermatological formulations of MNTF peptides” (Dermacare Neuroscience Institute, priority 2008, dated 2012).

Assay [1] has as its system hyaluronic acid levels in adult human dermal fibroblast (aHDF) conditioned media. The assay can be described thus: Hyaluronic acid in fibroblast-conditioned medium (HA-ELISA). The assay is classed as cell-based. As to conditions: positive control, 5 ng/ml, 96 h. The source says:
Hyaluronic acid (hyaluronan, HA), a naturally occurring carbohydrate polymer is a key component of connective, epithelial and neural tissues. HA participates in hydrodynamics, movement and proliferation of cells. This test was designed to determine whether a sample of palmitylated and non-palmitylated MNTF hexapeptide has an effect on hyaluronic acid levels in the adult human dermal fibroblast (aHDF) conditioned media.
Adult HDF (facial, passage 2, Cell Applications, San Diego, Calif. cat.#106-05A lot#1392) were plated in high glucose phosphate-free DMEM supplemented with 5% cosmic serum from Hyclone, Utah) at 6,000 cells per well and test materials were added the following day. Test materials were: Pal-Hexapeptide (palmitylated SEQ ID NO:2 as a lyophilized powder labeled APC 341055, lot V08150A1, received from DermaCare Neuroscience Institute), type I sterile water (negative control) and basic fibroblast growth factor (bFGF, positive control). Pal-Hexapeptide was dissolved in water at 20 mg/ml. Final concentrations tested were: 400, 200, 100, 50 and 25 ug/ml for DNP and 5 ng/ml for bFGF (plate 507). After 96 h, cell culture conditioned media were collected and 100 ul aliquotes were used for the HA assay. HA assay was performed using Hyaluronan Enzyme-Linked Immunosorbent Assay Kit (HA-ELISA, cat. #K-1200) from Echelon (Salt Lake City, Utah). The HA output was measured by following the generation of a chromophoric reaction product in 96 well plate, with the use of a BioRad microplate reader at 410 nm and the effect of the test materials was determined using the formula: Absorbance 410 (sample)/Absorbance 410 (Zero HA)×100.
Adult HDF (facial, passage 2, Cell Applications, San Diego, Calif. cat.#106-05A lot#1392) were plated in high glucose phosphate-free DMEM supplemented with 5% cosmic serum from Hyclone, Utah) at 6,000 cells per well and test materials were added the following day. Test materials were: hexapeptide (SEQ ID NO:2 (non-palmitylated), lyophilized powder lot #D294, received from DermaCare Neuroscience Institute), type I sterile water (negative control) and basic fibroblast growth factor (bFGF, positive control). Pal-Hexapeptide was dissolved in water at 20 mg/ml. Final concentrations tested were: 2000, 1000, 500 and 250 ug/ml for hexapeptide and 5 ng/ml for bFGF (plate 507). After 96 h, cell culture conditioned media were collected and 100 ul aliquotes were used for the HA assay. HA assay was performed using Hyaluronan Enzyme-Linked Immunosorbent Assay Kit (HA-ELISA, cat. #K-1200) from Echelon (Salt Lake City, Utah). The HA output was measured by following the generation of a chromophoric reaction product in 96 well plate, with the use of a BioRad microplate reader at 410 nm and the effect of the test materials was determined using the formula: Absorbance 410 (sample)/Absorbance 410 (Zero HA)×100.
(ELISA stands for enzyme-linked immunosorbent assay.)

Assay [2] relates to gamma interferon-induced NO production in epidermal keratinocytes. The assay can be described thus: Inhibition of gamma interferon-induced nitric oxide production in keratinocytes (Griess reaction). The assay is classed as cell-based. Conditions: positive control, aminoguanidine 10 mg/mL plus gamma interferon. The source says:
The study method chosen is similar to that published in the reference Tsai et al. (Tsai et al, Inhibition of inflammatory nitric oxide production and epidermis damages by Saccharomycopsis Ferment Filtrate. J Dermatol Sci 2006 June 42 (3): 249-57. Laskin, Multifunctional Role of Nitric Oxide in Inflammation, Trends Endocrinol Metab 1994; 5:377-382. Lyons, Emerging Roiles of Nitric Oxide in Inflammation, Hospital Practice, Jul. 15, 1996: 69-86.)
The objective of the study was to investigate the inhibition effect of Pal-hexapeptide (SEQ ID NO: 2, in palmitylated form) on gamma interferon-induced NO production in epidermal keratinocytes in culture.
Anti-inflammatory effect was observed as a reduction of nitric oxide production in keratinocytes. Keratinocytes were incubated 48 hours with gamma-interferon (300 U/ml) alone (as control) or with gamma-interferon together with different concentrations (0.1 μM, 1 μM, 10 μM, 100 μM and 1000 μM) of Pal-hexapeptide. Gamma interferon plus aminoguanidine (10 mg/mL) was used as positive control. The amount of NO production was detected by Griess reaction. Nitric oxide readily oxides to nitrite in aqueous medium, and this reaction was measured as nitrite accumulation in the medium. […] The optical density of the wells were read using a Tibertek Mutiskan (MCC microplate reader at a wavelength of 540 nm, subtracting the absorbance at a reference wavelength of 620 nm.) A printout of the absorbance values was generated by the plate reader, and data were entered into an EXCEL spreadsheet for analysis. The average absorbance and standard deviations were expressed as percent of control absorbances.

“basic fibroblast growth factor [bFGF, reference compound]”: in assay [1], the “stimulation of hyaluronic acid in the fibroblast-conditioned medium” value is recorded as “moderately stimulatory activity”.
`N=C(N)NN` [AG, aminoguanidine, reference compound]: the figures for the “nitric oxide production induced by Gamma-interferon, % of the control” value in assay [2] and in assay [2] (listed as positive control) were 42% and 25%, respectively.
